Laboratory results taken from paper PMC10648852, “Molecular drivers of resistance to sulbactam-durlobactam in contemporary clinical isolates of Acinetobacter baumannii” (Antimicrobial Agents and Chemotherapy, 2023).
Where two headings read alike, the source gives them in different places.

What was measured:
Test in all cases: microbe, parasite or virus in culture
[1] = system: ABC clinical isolates with SUL-DUR MIC > 4 µg/mL; type: cell-based, Acinetobacter baumannii-calcoaceticus complex; conditions: Acinetobacter
Description: (§1) The following report describes the genomic analysis of these isolates for likely resistance mechanisms. Biochemical analysis of purified PBP3 and phenotypic analyses of both clinical and isogenic strains were also conducted to determine the relative impact of key resistance determinants to SUL-DUR antibacterial activity.
(§2) Antimicrobial susceptibility testing was performed using broth microdilution following standardized methods established by the Clinical Laboratory Standards Institute (CLSI) ([35], [36]). […] MIC values were interpreted using CLSI breakpoints for all antimicrobial agents except those for which CLSI breakpoints are not available ([35]). SUL-DUR was tested as twofold dilutions of sulbactam in combination with a fixed concentration of 4 µg/mL durlobactam ([35]).

[2] = system: A. baumannii clinical isolates; type: cell-based; conditions: Acinetobacter baumannii
Description: as §1, §2

[3] = system: A. nosocomialis clinical isolate; type: cell-based; conditions: Acinetobacter nosocomialis, isolate ARC7023 (IHMA 2118812), France, BSI, 2019, read-out: MIC
Description: as §1, §2

[4] = system: A. pittii clinical isolates; type: cell-based; conditions: Acinetobacter pittii
Description: as §1, §2

CN(C)c1cc(NC(=O)CNC(C)(C)C)c(O)c2c1C[C@H]1C[C@H]3[C@H](N(C)C)C(O)=C(C(N)=O)C(=O)[C@@]3(O)C(O)=C1C2=O [TIG, tigecycline]
MIC50 [1]: 1 µg/mL
MIC90 [1]: 2 µg/mL
MIC ([1]; read-out: MIC Max): 16 µg/mL
MIC ([1]; read-out: MIC Min): 0.13 µg/mL
MIC ([2]; isolate ARC6644 (IHMA 1420327), Mexico, UTI, 2016, read-out: MIC): 1 µg/mL
MIC ([2]; isolate ARC6645 (IHMA 1435703), France, UTI, 2016, read-out: MIC): 0.25 µg/mL
MIC ([2]; isolate ARC6646 (IHMA 1484127), United States, RTI, 2016, read-out: MIC): 1 µg/mL
MIC ([2]; isolate ARC6647 (IHMA 1386786), Argentina, RTI, 2016, read-out: MIC): 0.12 µg/mL
MIC ([2]; isolate ARC6648 (IHMA 1407634), Spain, RTI, 2016, read-out: MIC): 1 µg/mL
MIC ([2]; isolate ARC6650 (IHMA 1457337), Argentina, RTI, 2016, read-out: MIC): 1 µg/mL
MIC ([2]; isolate ARC6652 (IHMA 1465642), Belgium, RTI, 2016, read-out: MIC): 0.25 µg/mL
MIC ([2]; isolate ARC6653 (IHMA 1308777), Vietnam, RTI, 2016, read-out: MIC): 1 µg/mL
MIC ([2]; isolate ARC6799 (IHMA 1562935), Spain, UTI, 2017, read-out: MIC): 1 µg/mL
MIC ([2]; isolate ARC6800 (IHMA 1557526), Turkey, RTI, 2017, read-out: MIC): 1 µg/mL
MIC ([2]; isolate ARC6801 (IHMA 1662094), Thailand, RTI, 2017, read-out: MIC): 1 µg/mL
MIC ([2]; isolate ARC6802 (IHMA 1557073), Spain, UTI, 2017, read-out: MIC): 1 µg/mL
MIC ([2]; isolate ARC6803 (IHMA 1589408), Belgium, UTI, 2017, read-out: MIC): 1 µg/mL
MIC ([2]; isolate ARC6805 (IHMA 1558650), United States, RTI, 2017, read-out: MIC): 1 µg/mL
MIC ([2]; isolate ARC6808 (IHMA 1557168), Spain, RTI, 2017, read-out: MIC): 1 µg/mL
MIC ([2]; isolate ARC6809 (IHMA 1699528), Guatemala, RTI, 2017, read-out: MIC): 0.5 µg/mL
MIC ([2]; isolate ARC6810 (IHMA 1699548), Guatemala, RTI, 2017, read-out: MIC): 1 µg/mL
MIC ([2]; isolate ARC6812 (IHMA 1699530), Guatemala, RTI, 2017, read-out: MIC): 0.5 µg/mL
MIC ([2]; isolate ARC6813 (IHMA 1699543), Guatemala, UTI, 2017, read-out: MIC): 0.25 µg/mL
MIC ([2]; isolate ARC6814 (IHMA 1699512), Guatemala, RTI, 2017, read-out: MIC): 1 µg/mL
MIC ([2]; isolate ARC6815 (IHMA 1699513), Guatemala, RTI, 2017, read-out: MIC): 0.5 µg/mL
MIC ([2]; isolate ARC6816 (IHMA 1699521), Guatemala, RTI, 2017, read-out: MIC): 2 µg/mL
MIC ([2]; isolate ARC6817 (IHMA 1699523), Guatemala, RTI, 2017, read-out: MIC): 0.5 µg/mL
MIC ([2]; isolate ARC6818 (IHMA 1683261), Thailand, RTI, 2017, read-out: MIC): 0.25 µg/mL
MIC ([2]; isolate ARC6819 (IHMA 1683267), Thailand, RTI, 2017, read-out: MIC): 2 µg/mL
MIC ([2]; isolate ARC6820 (IHMA 1647876), Argentina, RTI, 2017, read-out: MIC): 0.5 µg/mL
MIC ([2]; isolate ARC6821 (IHMA 1699517), Guatemala, RTI, 2017, read-out: MIC): 0.25 µg/mL
MIC ([2]; isolate ARC6822 (IHMA 1637626), Guatemala, RTI, 2017, read-out: MIC): 0.25 µg/mL
MIC ([2]; isolate ARC6823 (IHMA 1620872), Greece, SSSI, 2017, read-out: MIC): 1 µg/mL
MIC ([2]; isolate ARC6824 (IHMA 1625487), Argentina, BSI, 2017, read-out: MIC): 0.5 µg/mL
MIC ([2]; isolate ARC6937 (IHMA 1562926), Spain, UTI, 2017, read-out: MIC): 1 µg/mL
MIC ([2]; isolate ARC6950 (IHMA 1820064), Israel, RTI, 2018, read-out: MIC): 0.5 µg/mL
MIC ([2]; isolate ARC6953 (IHMA 1909827), Turkey, IAI, 2018, read-out: MIC): 0.5 µg/mL
MIC ([2]; isolate ARC6954 (IHMA 1838192), Guatemala, SSSI, 2018, read-out: MIC): 0.5 µg/mL
MIC ([2]; isolate ARC6955 (IHMA 1825425), United States, RTI, 2018, read-out: MIC): 0.5 µg/mL
MIC ([2]; isolate ARC7008 (IHMA 2009813), Thailand, BSI, 2019, read-out: MIC): 1 µg/mL
MIC ([2]; isolate ARC7009 (IHMA 2043611), United States, UTI, 2019, read-out: MIC): 1 µg/mL
MIC ([2]; isolate ARC7010 (IHMA 2043398), United States, RTI, 2019, read-out: MIC): 1 µg/mL
MIC ([2]; isolate ARC7011 (IHMA 2104553), Germany, RTI, 2019, read-out: MIC): 2 µg/mL
MIC ([2]; isolate ARC7012 (IHMA 2010001), Thailand, RTI, 2019, read-out: MIC): 1 µg/mL
MIC ([2]; isolate ARC7013 (IHMA 1962831), Argentina, RTI, 2019, read-out: MIC): 0.12 µg/mL
MIC ([2]; isolate ARC7014 (IHMA 2045328), Guatemala, IAI, 2019, read-out: MIC): 1 µg/mL
MIC ([2]; isolate ARC7015 (IHMA 2045327), Guatemala, UTI, 2019, read-out: MIC): 0.5 µg/mL
MIC ([2]; isolate ARC7016 (IHMA 2148441), Brazil, BSI, 2019, read-out: MIC): 0.5 µg/mL
MIC ([2]; isolate ARC7017 (IHMA 2148446), Brazil, BSI, 2019, read-out: MIC): 0.5 µg/mL
MIC ([2]; isolate ARC7018 (IHMA 2045454), Guatemala, IAI, 2019, read-out: MIC): 1 µg/mL
MIC ([2]; isolate ARC7019 (IHMA 2114463), Thailand, RTI, 2019, read-out: MIC): 16 µg/mL
MIC ([2]; isolate ARC7020 (IHMA 2045326), Guatemala, RTI, 2019, read-out: MIC): 1 µg/mL
MIC ([2]; isolate ARC7021 (IHMA 1966347), Guatemala, RTI, 2019, read-out: MIC): 0.5 µg/mL
MIC ([2]; isolate ARC7022 (IHMA 2045319), Guatemala, IAI, 2019, read-out: MIC): 2 µg/mL
MIC ([2]; isolate ARC7024 (IHMA 2059448), Turkey, RTI, 2019, read-out: MIC): 2 µg/mL
MIC ([2]; isolate ARC7025 (IHMA 2002121), Spain, RTI, 2019, read-out: MIC): 1 µg/mL
MIC ([2]; isolate ARC7026 (IHMA 2104494), Guatemala, BSI, 2019, read-out: MIC): 1 µg/mL
MIC ([2]; isolate ARC7082 (IHMA 2160640), Belgium, BSI, 2020, read-out: MIC): 1 µg/mL
MIC ([2]; isolate ARC7083 (IHMA 2163687), United States, RTI, 2020, read-out: MIC): 2 µg/mL
MIC ([2]; isolate ARC7084 (IHMA 2189596), Germany, RTI, 2020, read-out: MIC): 2 µg/mL
MIC ([2]; isolate ARC7085 (IHMA 2205747), Guatemala, IAI, 2020, read-out: MIC): 0.5 µg/mL
MIC ([2]; isolate ARC7086 (IHMA 2207563), Israel, RTI, 2020, read-out: MIC): 2 µg/mL
MIC ([2]; isolate ARC7088 (IHMA 2215554), Turkey, BSI, 2020, read-out: MIC): 2 µg/mL
MIC ([2]; isolate ARC7089 (IHMA 2240345), Argentina, BSI, 2020, read-out: MIC): 1 µg/mL
MIC ([2]; isolate ARC7090 (IHMA 2244410), Poland, RTI, 2020, read-out: MIC): 2 µg/mL
MIC ([2]; isolate ARC7091 (IHMA 2244564), Australia, RTI, 2020, read-out: MIC): 0.5 µg/mL
MIC ([2]; isolate ARC7092 (IHMA 2258772), United States, BSI, 2020, read-out: MIC): 1 µg/mL
MIC ([2]; isolate ARC7093 (IHMA 2258783), United States, RTI, 2020, read-out: MIC): 2 µg/mL
MIC ([2]; isolate ARC7094 (IHMA 2296423), Turkey, RTI, 2020, read-out: MIC): 1 µg/mL
MIC ([2]; isolate ARC7095 (IHMA 2320843), Turkey, BSI, 2020, read-out: MIC): 0.5 µg/mL
MIC ([2]; isolate ARC7156 (IHMA 2455450), Greece, RTI, 2021, read-out: MIC): 2 µg/mL
MIC ([2]; isolate ARC7158 (IHMA 2523738), Italy, BSI, 2021, read-out: MIC): 1 µg/mL
MIC ([2]; isolate ARC7159 (IHMA 2456229), Malaysia, RTI, 2021, read-out: MIC): 1 µg/mL
MIC ([2]; isolate ARC7160 (IHMA 2458626), Thailand, RTI, 2021, read-out: MIC): 2 µg/mL
MIC ([2]; isolate ARC7161 (IHMA 2429252), Ukraine, RTI, 2021, read-out: MIC): 2 µg/mL
MIC ([2]; isolate ARC7162 (IHMA 2411847), United States, BSI, 2021, read-out: MIC): 1 µg/mL
MIC ([2]; isolate ARC7163 (IHMA 2477704), United States, BSI, 2021, read-out: MIC): 1 µg/mL
MIC [3]: 0.25 µg/mL
MIC ([4]; isolate ARC6949 (IHMA 1898982), Romania, RTI, 2018, read-out: MIC): 0.5 µg/mL
MIC ([4]; isolate ARC6951 (IHMA 1776233), Philippines, RTI, 2018, read-out: MIC): 0.25 µg/mL
MIC ([4]; isolate ARC6952 (IHMA 1899008), Romania, RTI, 2018, read-out: MIC): 1 µg/mL
MIC ([4]; isolate ARC7087 (IHMA 2212062), Colombia, BSI, 2020, read-out: MIC): 0.25 µg/mL
